The text below walks through data of ChEMBL document CHEMBL3763139, “Design, synthesis and biological evaluation of novel donepezil-coumarin hybrids as multi-target agents for the treatment of Alzheimer's disease” (Bioorg Med Chem, 2016).

The term IC50 denotes the concentration at which inhibition is half-maximal. One may read the Papp as the rate of passage across a membrane or cell layer, normalised by area and donor concentration.

The source made the active and inactive calls. The rule behind the calls is not given here. Where only a bound is given, the exact number is not on record here.

For one data set, the species on record is Homo sapiens. In words: Selectivity index, ratio of IC50 for human recombinant MAO-A to IC50 for human recombinant MAO-B.
Data set [1] deals with Cholinesterase (Homo sapiens, UniProt P06276).
Description: Inhibition of human serum BuChE using S-butyrylthiocholine iodide as substrate preincubated for 6 mins followed by substrate addition measured up to 180 secs by spectrophotometric-based Ellman's method
Data set [2] addresses Cholinesterase (Equus caballus, UniProt P81908).
Description: Inhibition of equine serum BuChE using S-butyrylthiocholine iodide as substrate preincubated for 6 mins followed by substrate addition measured up to 180 secs by spectrophotometric-based Ellman's method
Data set [3] concerns the target T1, Amine oxidase [flavin-containing] A (Homo sapiens, UniProt P21397).
T1 sequence (P21397 whole entry): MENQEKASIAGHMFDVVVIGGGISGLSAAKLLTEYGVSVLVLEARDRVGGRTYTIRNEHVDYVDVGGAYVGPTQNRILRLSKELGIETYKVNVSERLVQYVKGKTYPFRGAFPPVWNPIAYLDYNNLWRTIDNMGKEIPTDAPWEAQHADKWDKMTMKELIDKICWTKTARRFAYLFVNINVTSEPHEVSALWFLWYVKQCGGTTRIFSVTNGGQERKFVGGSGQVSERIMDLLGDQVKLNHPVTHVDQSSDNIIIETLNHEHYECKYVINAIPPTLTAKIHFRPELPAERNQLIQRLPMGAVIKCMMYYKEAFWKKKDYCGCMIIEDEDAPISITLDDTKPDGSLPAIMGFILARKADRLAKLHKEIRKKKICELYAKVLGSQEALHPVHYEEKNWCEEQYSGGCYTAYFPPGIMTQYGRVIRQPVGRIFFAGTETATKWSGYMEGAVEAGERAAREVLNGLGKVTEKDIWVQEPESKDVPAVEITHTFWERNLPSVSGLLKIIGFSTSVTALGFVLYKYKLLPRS
Kind of data set: Inhibition of human recombinant MAO-A using p-tyramine substrate at 100 uM after 15 mins by fluorimetric analysis. The settings on record: 0.25 h.

Data set [4] concerns the target T2, Amine oxidase [flavin-containing] B (Homo sapiens, UniProt P27338).
T2 sequence (P27338 whole entry): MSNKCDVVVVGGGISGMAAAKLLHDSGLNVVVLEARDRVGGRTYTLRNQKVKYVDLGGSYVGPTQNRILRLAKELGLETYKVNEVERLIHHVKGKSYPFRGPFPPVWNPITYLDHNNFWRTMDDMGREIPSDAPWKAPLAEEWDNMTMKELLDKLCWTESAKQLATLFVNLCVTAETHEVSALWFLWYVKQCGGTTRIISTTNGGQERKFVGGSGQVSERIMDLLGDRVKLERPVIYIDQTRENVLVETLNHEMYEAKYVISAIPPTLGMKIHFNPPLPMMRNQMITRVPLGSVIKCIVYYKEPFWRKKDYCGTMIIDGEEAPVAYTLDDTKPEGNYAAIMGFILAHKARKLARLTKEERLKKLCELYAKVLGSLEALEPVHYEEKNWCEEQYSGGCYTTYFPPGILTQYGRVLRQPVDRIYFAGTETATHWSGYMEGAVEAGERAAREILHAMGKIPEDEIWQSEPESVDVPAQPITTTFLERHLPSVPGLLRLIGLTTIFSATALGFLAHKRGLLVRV
Description: Inhibition of human recombinant MAO-B using p-tyramine substrate after 15 mins by fluorimetric analysis

Data set [5] addresses Acetylcholinesterase (Electrophorus electricus, UniProt O42275).
Description: Inhibition of electric eel AChE using acetylthiocholine iodide as substrate preincubated for 6 mins followed by substrate addition measured up to 180 secs by spectrophotometric-based Ellman's method
In data set [6] the target is Acetylcholinesterase (Homo sapiens, UniProt P22303).
Description: Inhibition of human erythrocyte AChE using acetylthiocholine iodide as substrate preincubated for 6 mins followed by substrate addition measured up to 180 secs by spectrophotometric-based Ellman's method
Data set [7] is described as follows: Cytotoxicity against human SH-SY5Y cells assessed as cell viability at 10 uM after 24 hrs by MTT assay. The format is cell-based. As to conditions: read-out: Activity.
A short description of the next data set: in vitro. As to conditions: PAMPA, pH 7.4. In general terms: In PAMPA a lipid-coated filter parts donor from acceptor wells.
Data set [8] can be described thus: Cytotoxicity against human SH-SY5Y cells assessed as cell viability at 5 uM after 24 hrs by MTT assay. It counts as cell-based. The settings on record: read-out: Activity. (In general: Formazan colour is commonly taken as a measure of viable cells.)
Data set [9] has as its target T2, Amine oxidase [flavin-containing] B. In words: Competitive inhibition of human recombinant MAO-B using p-tyramine substrate at 1.5 to 6 uM after 15 mins by Lineweaver-Burk reciprocal plot analysis. The settings on record: 0.25 h.
The nature of data set [10]: Cytotoxicity against human SH-SY5Y cells assessed as cell viability at 25 uM after 24 hrs by MTT assay. It counts as cell-based. The settings on record: read-out: Activity.
Data set [11] in a line: Hepatotoxicity against human HepG2 cells assessed as cell viability at 25 uM after 24 hrs by MTT assay. As to conditions: read-out: Activity. The format is toxicity, cell-based.
Data set [12] in a line: Cytotoxicity against human SH-SY5Y cells assessed as cell viability at 50 uM after 24 hrs by MTT assay. The format is cell-based. As to conditions: read-out: Activity.
Data set [13] in a line: Cytotoxicity against human SH-SY5Y cells assessed as cell viability at 1 uM after 24 hrs by MTT assay. It counts as cell-based. As to conditions: read-out: Activity.
Data set [14] is described as follows: Hepatotoxicity against human HepG2 cells assessed as cell viability at 6.25 uM after 24 hrs by MTT assay. It counts as toxicity, cell-based. As to conditions: read-out: Activity.
In data set [15] the target is Acetylcholinesterase (Electrophorus electricus) (UniProt O42275). Kind of data set: Mixed type inhibition of electric eel AChE using acetylthiocholine iodide as substrate at 0.44 to 1.74 uM preincubated for 6 mins followed by substrate addition measured up to 180 secs by Lineweaver-Burk reciprocal plot analysis.
Data set [16] has as its target T2, Amine oxidase [flavin-containing] B. Kind of data set: Reversible inhibition of human recombinant MAO-B assessed as enzyme recovery using p-tyramine substrate at 100 times IC50 preincubated for 30 mins followed by 100 fold dilution by fluorimetric analysis relative to control. On the set-up: scale not given: the % may be the effect or the level left.
The target of data set [17] is Cholinesterase (Equus caballus) (UniProt P81908). The settings on record: 0.44 to 1.74 uM.
Data set [18] can be described thus: Hepatotoxicity against human HepG2 cells assessed as cell viability at 12.5 uM after 24 hrs by MTT assay. It counts as toxicity, cell-based. As to conditions: read-out: Activity.
Data set [19] is described as follows: Hepatotoxicity against human HepG2 cells assessed as cell viability at 50 uM after 24 hrs by MTT assay. It counts as toxicity, cell-based. As to conditions: read-out: Activity.

Sequence of Acetylcholinesterase (Electrophorus electricus, UniProt O42275) (O42275 whole entry): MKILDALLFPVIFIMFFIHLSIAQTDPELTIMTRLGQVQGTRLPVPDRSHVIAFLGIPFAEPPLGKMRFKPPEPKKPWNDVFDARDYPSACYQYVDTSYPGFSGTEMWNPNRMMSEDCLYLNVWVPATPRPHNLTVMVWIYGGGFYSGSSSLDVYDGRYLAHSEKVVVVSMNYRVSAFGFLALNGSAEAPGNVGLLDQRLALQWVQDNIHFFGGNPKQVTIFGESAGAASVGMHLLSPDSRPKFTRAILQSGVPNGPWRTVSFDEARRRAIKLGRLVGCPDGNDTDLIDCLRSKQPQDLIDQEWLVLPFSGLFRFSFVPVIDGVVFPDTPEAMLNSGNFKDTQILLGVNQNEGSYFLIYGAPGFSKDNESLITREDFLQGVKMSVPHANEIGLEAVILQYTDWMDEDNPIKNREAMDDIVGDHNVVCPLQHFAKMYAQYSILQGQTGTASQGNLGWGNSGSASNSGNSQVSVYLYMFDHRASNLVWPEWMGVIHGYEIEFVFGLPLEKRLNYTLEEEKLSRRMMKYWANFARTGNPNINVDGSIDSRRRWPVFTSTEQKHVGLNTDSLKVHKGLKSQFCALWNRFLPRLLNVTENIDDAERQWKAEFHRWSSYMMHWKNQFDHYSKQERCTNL
Sequence of Cholinesterase (Equus caballus, UniProt P81908) (P81908 whole entry): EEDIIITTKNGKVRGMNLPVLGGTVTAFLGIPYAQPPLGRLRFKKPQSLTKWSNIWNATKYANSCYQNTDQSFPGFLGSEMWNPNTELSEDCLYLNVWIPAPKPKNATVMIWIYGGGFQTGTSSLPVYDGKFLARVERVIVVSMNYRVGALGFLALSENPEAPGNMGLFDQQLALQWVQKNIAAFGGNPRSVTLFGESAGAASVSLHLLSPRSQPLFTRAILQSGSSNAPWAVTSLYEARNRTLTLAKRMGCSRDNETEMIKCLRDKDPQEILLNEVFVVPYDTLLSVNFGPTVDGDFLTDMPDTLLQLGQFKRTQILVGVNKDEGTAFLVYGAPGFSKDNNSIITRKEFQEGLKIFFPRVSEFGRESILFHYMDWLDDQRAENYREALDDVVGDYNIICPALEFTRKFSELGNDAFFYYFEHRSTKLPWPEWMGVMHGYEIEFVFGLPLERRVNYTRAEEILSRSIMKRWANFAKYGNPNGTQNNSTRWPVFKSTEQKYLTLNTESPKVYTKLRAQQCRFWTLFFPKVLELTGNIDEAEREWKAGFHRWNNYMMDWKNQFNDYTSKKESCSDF
Sequence of Acetylcholinesterase (Homo sapiens, UniProt P22303) (P22303 whole entry): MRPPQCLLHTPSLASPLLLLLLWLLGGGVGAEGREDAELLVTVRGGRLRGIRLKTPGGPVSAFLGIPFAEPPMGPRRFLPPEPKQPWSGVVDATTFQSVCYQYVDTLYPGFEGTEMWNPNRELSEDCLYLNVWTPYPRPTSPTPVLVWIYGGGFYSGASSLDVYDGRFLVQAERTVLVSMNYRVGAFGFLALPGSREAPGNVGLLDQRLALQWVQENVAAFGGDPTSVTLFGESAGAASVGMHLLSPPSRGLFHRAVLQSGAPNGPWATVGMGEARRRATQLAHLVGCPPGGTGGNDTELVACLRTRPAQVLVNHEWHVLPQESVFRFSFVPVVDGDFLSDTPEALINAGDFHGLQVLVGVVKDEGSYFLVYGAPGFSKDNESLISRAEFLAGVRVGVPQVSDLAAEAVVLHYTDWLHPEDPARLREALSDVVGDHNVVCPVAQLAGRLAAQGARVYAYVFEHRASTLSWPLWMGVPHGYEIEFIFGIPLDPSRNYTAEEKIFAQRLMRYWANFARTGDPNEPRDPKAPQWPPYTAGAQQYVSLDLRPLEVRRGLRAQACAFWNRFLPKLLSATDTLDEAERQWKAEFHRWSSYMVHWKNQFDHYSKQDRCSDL
Sequence of Cholinesterase (Homo sapiens, UniProt P06276) (P06276 whole entry): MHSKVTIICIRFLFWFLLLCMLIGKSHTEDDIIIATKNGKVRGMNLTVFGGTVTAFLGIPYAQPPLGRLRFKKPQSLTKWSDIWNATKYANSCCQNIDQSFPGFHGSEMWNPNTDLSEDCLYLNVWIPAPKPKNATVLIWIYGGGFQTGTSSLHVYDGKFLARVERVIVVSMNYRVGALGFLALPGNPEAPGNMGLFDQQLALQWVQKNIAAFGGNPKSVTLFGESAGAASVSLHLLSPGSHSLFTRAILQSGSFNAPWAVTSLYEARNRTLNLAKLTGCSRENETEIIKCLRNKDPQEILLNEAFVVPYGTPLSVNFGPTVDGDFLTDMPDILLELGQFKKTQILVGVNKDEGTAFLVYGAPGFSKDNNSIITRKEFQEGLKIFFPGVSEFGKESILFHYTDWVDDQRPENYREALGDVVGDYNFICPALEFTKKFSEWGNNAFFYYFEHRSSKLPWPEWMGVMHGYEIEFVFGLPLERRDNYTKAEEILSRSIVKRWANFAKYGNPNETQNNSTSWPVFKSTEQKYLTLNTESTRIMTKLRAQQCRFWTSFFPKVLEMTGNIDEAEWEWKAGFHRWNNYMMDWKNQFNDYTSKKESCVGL
Sequence of Cholinesterase (Equus caballus) (P81908 whole entry): as the sequence (P81908 whole entry) above
Sequence of Acetylcholinesterase (Electrophorus electricus) (O42275 24-633 limits assumed): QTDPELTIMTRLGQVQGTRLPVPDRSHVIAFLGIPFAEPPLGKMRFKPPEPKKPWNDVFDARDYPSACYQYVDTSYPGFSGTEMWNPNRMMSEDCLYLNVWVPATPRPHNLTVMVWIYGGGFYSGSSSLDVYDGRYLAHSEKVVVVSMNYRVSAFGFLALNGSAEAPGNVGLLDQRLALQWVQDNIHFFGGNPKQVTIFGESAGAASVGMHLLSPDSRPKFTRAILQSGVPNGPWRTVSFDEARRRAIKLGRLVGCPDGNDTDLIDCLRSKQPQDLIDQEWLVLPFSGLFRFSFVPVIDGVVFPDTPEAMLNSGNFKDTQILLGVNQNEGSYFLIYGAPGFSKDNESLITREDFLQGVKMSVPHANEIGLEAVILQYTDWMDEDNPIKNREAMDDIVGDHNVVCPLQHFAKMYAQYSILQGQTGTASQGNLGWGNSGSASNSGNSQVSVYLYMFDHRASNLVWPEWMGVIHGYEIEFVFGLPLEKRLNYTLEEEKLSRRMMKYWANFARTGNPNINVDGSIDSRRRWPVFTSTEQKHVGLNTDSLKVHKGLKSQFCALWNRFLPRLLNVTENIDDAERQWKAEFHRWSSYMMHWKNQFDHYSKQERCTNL
Description for in vitro: Permeability of the compound at 25 ug/ml at pH 7.4 after 16 hrs by PAMPA

Consider `Cc1cc(=O)oc2cc(CNCCC3CCN(Cc4ccccc4)CC3)ccc12`, for which the Ratio IC50 in the data set filed under Homo sapiens was over 2.47. Besides, the IC50 against Cholinesterase [1] was 3.45 µM; on Cholinesterase [2] it was 0.96 µM; in data set [4] it was 40.5 µM; against Acetylcholinesterase [5], 0.91 µM; at Acetylcholinesterase [6], 0.067 µM. The “inhibition (INH)” value in data set [3] is “Not Active”.
Regarding `Cc1c(Cl)c(=O)oc2cc(OCCNC3CCN(Cc4ccccc4)CC3)ccc12`, the Ratio IC50 in the data set filed under Homo sapiens is over 6.8. The 50% inhibitory concentration (IC50) on Cholinesterase [1] was 1.68 µM; at Cholinesterase [2] it was 1.42 µM; in data set [4] it was 14.7 µM; on Acetylcholinesterase [5], 1.58 µM; at Acetylcholinesterase [6], 1.82 µM. In data set [3], the “inhibition (INH)” value is given as “Not Active”.
On to `O=c1cc(C(F)(F)F)c2ccc(OCCNC3CCN(Cc4ccccc4)CC3)cc2o1`, for which the Ratio IC50 in the data set filed under Homo sapiens is over 3.51. The IC50 is 10.2 µM against Cholinesterase [2], 28.5 µM in data set [4] and 9.18 µM at Acetylcholinesterase [5]. Further, the “inhibition (INH)” value in [3] is “Not Active”.
For `Cc1cc2ccc(OCCNC3CCN(Cc4ccccc4)CC3)cc2oc1=O` the same measures were over 42, 7.53 µM, 2.38 µM, 6.03 µM and “Not Active”.
With `O=c1ccc2ccc(OCCCNC3CCN(Cc4ccccc4)CC3)cc2o1`, the Ratio IC50 in the data set listed under Homo sapiens is over 7.94. The values for the IC50 (against Cholinesterase [2]; in data set [4]; against Acetylcholinesterase [5]) were 9.86 µM, 12.6 µM and 11.7 µM, respectively. Moreover, in [3], the “inhibition (INH)” value is “Not Active”.
On to `O=c1oc2cc(OCCNC3CCN(Cc4ccccc4)CC3)ccc2c2c1CCCC2`, for which the viability at 24 h, 10 µM in data set [7] is 97.5%. Moreover, the Ratio IC50 in the data set listed under Homo sapiens was over 38.2. The half-inhibitory concentration (IC50) against Cholinesterase [1] was 1.98 µM; against Cholinesterase [2], 0.93 µM; in data set [4] it was 2.62 µM; against Acetylcholinesterase [5], 0.87 µM; against Acetylcholinesterase [6], 1.37 µM. In addition, the Papp at 16 h, 25 ug/ml in the data set “in vitro” turned out to be 16.2 ×10⁻⁶ cm/s. Further, in [8], the viability at 24 h, 5 µM was found to be 102%. Besides, the “inhibition (INH)” value in data set [9] was “Active”; in data set [3], “Not Active”. The viability at 24 h, 25 µM in data set [10] amounted to 94.6%; in data set [11] it was 105%. The viability at 24 h, 50 µM in [12] came out at 92.6%; in data set [19], 104%. In addition, the viability at 24 h, 1 µM in data set [13] was 99.6%. The viability at 24 h, 6.25 µM in [14] worked out at 101%. For the same compound, the inhibition entry in data set [15] and in data set [17] was “Active” throughout. Moreover, in data set [16], the Activity worked out at 47%. The viability at 24 h, 12.5 µM in [18] amounted to 101%.
In the case of `Cc1cc(=O)oc2cc(CNC3CCN(Cc4ccccc4)CC3)ccc12`, the Ratio IC50 in the data set listed under Homo sapiens was over 51.8. Further, the half-inhibitory concentration (IC50) at Cholinesterase [2] came out at 10.8 µM; in data set [4], 1.93 µM; against Acetylcholinesterase [5] it was 7.28 µM. Moreover, in data set [3], the “inhibition (INH)” value is listed as “Not Active”.
For `O=c1ccc2ccc(OCCNC3CCN(Cc4ccccc4)CC3)cc2o1` the same measures were over 11.9, 5.34 µM, 8.39 µM, 4.42 µM and “Not Active”.
As for `O=c1cc(Cl)c2ccc(OCCNC3CCN(Cc4ccccc4)CC3)cc2o1`, the Ratio IC50 in the data set listed under Homo sapiens was over 2.95. Besides, the IC50 was found to be 2.93 µM against Cholinesterase [1]; 1.48 µM against Cholinesterase [2]; 33.9 µM in data set [4]; 1.5 µM against Acetylcholinesterase [5]; 2.04 µM on Acetylcholinesterase [6]. The “inhibition (INH)” value in [3] was “Not Active”.
As for `O=c1ccc2ccc(OCCNCCC3CCN(Cc4ccccc4)CC3)cc2o1`, the Ratio IC50 in the data set filed under Homo sapiens is over 3.29. Besides, the IC50 against Cholinesterase [2] came to 9.79 µM; in data set [4], 30.4 µM; at Acetylcholinesterase [5], 8.91 µM. Besides, the “inhibition (INH)” value in [3] is “Not Active”.
For `O=c1cc(-c2ccccc2)c2ccc(OCCNC3CCN(Cc4ccccc4)CC3)cc2o1` the same measures were over 2.19, 8.93 µM, 45.6 µM, 9.65 µM and “Not Active”.
The matching figures for `Cc1cc(=O)oc2cc(OCCNC3CCN(Cc4ccccc4)CC3)ccc12`: over 36.4, 4.38 µM, 2.75 µM, 5.62 µM and “Not Active”.
In the case of `CCOc1cc(=O)oc2cc(OCCNC3CCN(Cc4ccccc4)CC3)ccc12`, the Ratio IC50 in the data set filed under Homo sapiens was over 3.13. Also, the figures for the IC50 (against Cholinesterase [2]; in data set [4]; on Acetylcholinesterase [5]) were 6.95 µM, 31.9 µM and 6.34 µM, respectively. The “inhibition (INH)” value in data set [3] was “Not Active”.
For `COc1cc(=O)oc2cc(OCCNC3CCN(Cc4ccccc4)CC3)ccc12` the same measures were over 2.98, 5.64 µM, 33.6 µM, 6.29 µM and “Not Active”.
Turning to `Cc1c(C)c2ccc(OCCNC3CCN(Cc4ccccc4)CC3)cc2oc1=O`, the Ratio IC50 in the data set filed under Homo sapiens was over 4.27. The IC50 is 2.67 µM against Cholinesterase [1]; 1.67 µM at Cholinesterase [2]; 23.4 µM in data set [4]; 1.48 µM at Acetylcholinesterase [5]; 1.69 µM against Acetylcholinesterase [6]. Moreover, the “inhibition (INH)” value in [3] is “Not Active”.
